In patent publication US6080791A, “Method of treating a viral condition by inhibiting membrane fusion” (priority 1992, dated 2000):
Where two headings read alike, the source gives them in different places.

Key:
[1] = biological target: hemagglutinin (BHA), fusion peptide exposure (Influenza A virus (A/X-31(H3N2)), UniProt P03438); type: biochemical, C22 / X31 influenza virus (H3N2)
low pH BHA = assay: SPA POST control (nonspecific quenching); parameters: species or system C22 / X31 influenza virus (H3N2)
Experimental: The compounds being screened by SPA are present during scintillation counting. Some of the chemicals, particularly those that are highly colored, quench the detection of radioactivity. A control ("POST") distinguishes whether apparent inhibition arises from inhibition of the conformational change or from nonspecific effects. The test compound is added to a sample of BHA that had previously been acidified and reneutralized. The mixture is then precipitated as usual. Since the BHA treated in this manner is known to be in the low pH conformation, a reduction in measurable cpm compared to controls with ligand omitted proves the compound interferes with the detection system.
^3 H-Leu BHA was diluted to 10,000 cpm (counts per minute) per 200 μl in MSSH buffer (10 mM HEPES, 10 mM MES, 10 mM succinate, 0.10 M NaCl, pH 7.0) containing 0.1% NP40. Protein was incubated with the specified concentration of trial compound for 25 minutes at RT. The same volume of solvent used to dissolve the compound was added to control samples and the final concentration of DMSO in all solutions was 0.67% v/v. A predetermined amount of 1N HAc was added to bring the reactions to the appropriate pH (usually pH 5.0). Following a 5 minute (unless specified otherwise) incubation at RT, reactions were reneutralized with 1N NaOH. For POST controls, compounds were added to the appropriate concentration after reneutralization. 200 μL aliquots of the protein solution were added to scintillation vials containing 100 μl protein A-SPA beads (Amersham), 5% fetal bovine serum (FBS), and antibody. Vials were incubated overnight at RT with constant shaking. Each reaction used 10 μl of fusion peptide antiserum diluted 1:10 with 50% glycerol. Cpm were detected in a Beckman LS3801 scintillation counter without addition of liquid scintillant.
Apparent inhibition due to nonspecific effects was quantitated from the POST controls with the equation:
observed cpm=true cpm*quench factor

[2] = test system: hemagglutinin-mediated hemolysis of human red blood cells; assay: Hemolysis (HEM) assay; type: cell-based, C22 influenza virus; human red blood cells; details: for inhibition at 1000 µM: log conc -3 (M)
hemoglobin = assay: Hb control (quenching of OD570 of hemoglobin); parameters: species or system human
in vitro = details: dog, mdck
Experimental: The ELISA-based assay described below (EIA antiviral assay) was used to measure antiviral activity. Cell viability was measured in parallel to distinguish inhibition of viral replication from toxicity.
Infections of MDCK2 cells with virus, compounds, and DMSO were set up identically as for the EIA assay. Following the 15 hour incubation, test compounds were washed away with PBS. 50 μl of MDCK2 growth media and 25 μl 2 mg/ml 3-(4,5-dimethylthiazol-2-yl)-2,5-diphenyl tetrazolium bromide (Sigma) in PBS were added to each well. Plates were returned to 37° C., 5% CO2 for 4 hrs. Crystals were broken up by vigorous mixing following addition of 80 μl isopropanol/0.04 N HCl. After incubation for 30 mins at RT, OD570 was read on an ELISA reader. % Inhibition is the % reduction of OD570 in the wells infected with compound compared to otherwise identical samples with compound omitted.

C22 virus in MDCK2 cells = assay: microbe, parasite or virus in culture; details: unidentified influenza virus
[3] = unidentified influenza virus, Erythrocyte, read-out: hemolysis % ↓ OD
[4] = MDCK2, 15 h, read-out: infectivity % inhibition
[5] = unidentified influenza virus, Erythrocyte, 0.25 h, Table 6, 10^-3 = 1 mM, low pH 15 minutes, read-out: IC50 hemolysis

hemagglutinin (BHA), fusion peptide exposure (Influenza A virus (A/X-31(H3N2)), UniProt P03438), sequence (P03438 whole entry, looked up, the tested form may be a part): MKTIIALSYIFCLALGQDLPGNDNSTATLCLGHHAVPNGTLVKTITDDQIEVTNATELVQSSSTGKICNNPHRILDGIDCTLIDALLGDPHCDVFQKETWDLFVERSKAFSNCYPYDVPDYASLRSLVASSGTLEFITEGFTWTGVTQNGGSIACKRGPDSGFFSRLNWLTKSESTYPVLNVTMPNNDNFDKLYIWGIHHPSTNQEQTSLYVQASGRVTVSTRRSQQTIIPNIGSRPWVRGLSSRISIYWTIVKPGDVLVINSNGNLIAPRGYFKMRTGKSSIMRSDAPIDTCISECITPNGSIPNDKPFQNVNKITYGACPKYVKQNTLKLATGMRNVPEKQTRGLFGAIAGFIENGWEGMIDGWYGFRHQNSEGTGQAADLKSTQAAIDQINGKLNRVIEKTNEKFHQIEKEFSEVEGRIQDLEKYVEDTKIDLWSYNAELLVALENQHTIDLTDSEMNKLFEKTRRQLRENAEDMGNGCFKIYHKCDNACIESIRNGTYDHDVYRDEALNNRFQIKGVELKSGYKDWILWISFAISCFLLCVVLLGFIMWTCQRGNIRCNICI

SMILES: OC1CC2CC1C1C3C=CC(C3)C21 (stereo not drawn) [Compound 96, 1,2,3,4,4A,5,8,8A-octahydro-1,4:5,8-dimethano-2-naphthol]
- inhibition in the SPA assay ([1]; 1 μM-1 mM): showed no inhibition

SMILES: CCOC(=O)c1c(C)cc(O)cc1O [Compound 122, ethyl 2,4-dihydroxy-6-methylbenzoate]
- inhibition in the SPA assay ([1]; 1 μM-1 mM): showed no inhibition
- activity note in Table 7 ([1]; Table 7): inactive

SMILES: O=C1C2C3C=CC(C3)C2C(=O)N1O (stereo not drawn) [Compound 94, N-hydroxy-5-norbornene-2,3-dicarboximide]
- inhibition in the SPA assay ([1]; 1 μM-1 mM): showed no inhibition
- activity note in Table 7 ([1]; Table 7): inactive

SMILES: Oc1ccc(O)c2c1C1C=CC2C1 [Compound 83A, 5,8-dihydro-5,8-methano-1,4-naphthalenediol]
- SPA activity [1]: significantly higher activity
- % inhibition, POST control (low pH BHA; log conc -3 (M)): 0.5 ± 1.1%
- % inhibition, POST control (low pH BHA; log conc -4 (M)): -0.9 ± 1.5%
- % inhibition, POST control (low pH BHA; log conc -5 (M)): -0.5%
- % inhibition, POST control (low pH BHA; log conc -6 (M)): 10.8%

SMILES: CC(=O)OC1CC2CC1C1C3C=CC(C3)C21 (stereo not drawn) [Compound 88, 1,2,3,4,4A,5,8,8A-octahydro-1,4:5,8-dimethanonaphth-2-yl acetate]
- inhibition in the SPA assay ([1]; 1 μM-1 mM): showed no inhibition
- activity note in Table 7 ([1]; Table 7): inactive

SMILES: CC1=CC(=O)c2ccccc2C1=O [Compound 118, 2-methyl-1,4-naphthoquinone]
- inhibition in the SPA assay ([1]; 1 μM-1 mM): showed no inhibition
- activity note in Table 7 ([1]; Table 7): inactive

SMILES: COC(=O)C1C2C=CC(C2)C1C(=O)O (stereo not drawn) [Compound 87, 5-norbornene-2,3-dicarboxylic acid monomethyl ester]
- inhibition in the SPA assay ([1]; 1 μM-1 mM): showed no inhibition

SMILES: Oc1ccc(O)cc1 [Compound 104, hydroquinone]
- activity note in Table 7 [1]: inactive
- inhibition in the SPA assay [1]: showed no inhibition

SMILES: ClC1(Cl)C2CC3C4C=CC(C4)C3C21 (stereo not drawn) [Compound 92, 5,5-dichlorotetracyclo-[6.2.1.0,2,7.0.4.6] undec-9-ene]
- inhibition in the SPA assay ([1]; 1 μM-1 mM): showed no inhibition

SMILES: O=c1[nH][nH]c(=O)c2ccccc12 [Compound 108, phthalhydrazide]
- inhibition in the SPA assay ([1]; 1 μM-1 mM): showed no inhibition
- activity note in Table 7 ([1]; Table 7): inactive

SMILES: COC(=O)C1C=CCC2C(=O)C=CC(=O)C12 (stereo not drawn) [Compound 97, methyl 5,8-dioxo-1,4,4A,5,8,8A-hexahydro-1-naphthalenecarboxylate]
- inhibition of hemolytic activity [2]: apparently inhibited hemolytic activity
- IC50 ([2]; unidentified influenza virus, Erythrocyte, Table 7, preliminary results, read-out: HEM, negative log of IC50 (preliminary results) (converted)): 100 µM
- inhibition at 1000 µM [2, 3]: 102 ± 5.8%
- inhibition at 100 µM ([2]; unidentified influenza virus, Erythrocyte, log conc -4 (M), read-out: hemolysis % ↓ OD): 94.6%
- inhibition at 10 µM ([2]; unidentified influenza virus, Erythrocyte, log conc -5 (M), read-out: hemolysis % ↓ OD): 23.7%
- inhibition at 1 µM ([2]; unidentified influenza virus, Erythrocyte, log conc -6 (M), read-out: hemolysis % ↓ OD): 6.6%
- Hb control % ↓ OD (hemoglobin; log conc -3 (M)): 55.0 ± 13.3%
- Hb control % ↓ OD (hemoglobin; log conc -4 (M)): 37.6 ± 4.9%
- Hb control % ↓ OD (hemoglobin; log conc -5 (M)): 31%
- Hb control % ↓ OD (hemoglobin; log conc -6 (M)): 13.0%
- cytotoxicity at 15 h, 1 µM (in vitro): -3.1 ± 7.9%
- cytotoxicity at 15 h, 10 µM (in vitro): 32.9 ± 30.9%
- cytotoxicity at 15 h, 100 µM (in vitro): 95.9 ± 8%
- inhibition at 1 µM (C22 virus in MDCK2 cells; [4]): -4.7 ± 9.4%
- inhibition at 10 µM (C22 virus in MDCK2 cells; [4]): 92.6 ± 12.7%
- IC50 (C22 virus in MDCK2 cells; MDCK2, read-out: INF, negative log of IC50 (preliminary results) (converted)): 1 to 10 µM

SMILES: OC1=CCC2C3C=CC(C3)C12 (stereo not drawn) [Compound 109, hydroxydicyclopentadiene]
- inhibition in the SPA assay ([1]; 1 μM-1 mM): showed no inhibition
- activity note in Table 7 ([1]; Table 7): inactive

SMILES: Oc1cccc2cccnc12 [Compound 127, 8-hydroxyquinoline]
- activity note in Table 7 [1]: inactive
- inhibition in the SPA assay [1]: showed no inhibition

SMILES: O=C1NC(=O)c2ccccc21 [Compound 100, phthalimide]
- inhibition in the SPA assay ([1]; 1 μM-1 mM): showed no inhibition
- activity note in Table 7 ([1]; Table 7): inactive

SMILES: O=C(O)[C@@H]1[C@H](C(=O)O)[C@@H]2C=C[C@H]1C2 [Compound 89, cis-5-norbornene-endo-2,3-dicarboxylic acid]
- inhibition in the SPA assay ([1]; 1 μM-1 mM): showed no inhibition
- activity note in Table 7 ([1]; Table 7): inactive

SMILES: O=C(O)C1C2C=CC(C2)C1C(=O)Nc1ccccc1 (stereo not drawn) [Compound 98, 3-(N-phenylcarbamoyl)-5-norbornen-2-carboxylic acid]
- inhibition in the SPA assay ([1]; 1 μM-1 mM): showed no inhibition

SMILES: CN1C(=O)C2C3C=CC(C3)C2C1=O (stereo not drawn) [Compound 95, N-methyl-5-norbornene-2,3-dicarboximide]
- inhibition in the SPA assay ([1]; 1 μM-1 mM): showed no inhibition
- activity note in Table 7 ([1]; Table 7): inactive

SMILES: Oc1cccc2ccccc12 [Compound 106, 1-naphthol]
- inhibition in the SPA assay ([1]; 1 μM-1 mM): showed no inhibition
- activity note in Table 7 ([1]; Table 7): inactive

SMILES: COC(=O)C1C2C=CC(C2)C1C(=O)OC (stereo not drawn) [Compound 85, dimethylbicyclo[2.2.1]-5-heptene-2,3-dicarboxylate]
- inhibition in the SPA assay ([1]; 1 μM-1 mM): showed no inhibition

SMILES: O=C1C=C(Br)C(=O)c2ccccc21 [Compound 135, 2-bromo-1,4-naphthoquinone]
- inhibition of hemolytic activity [2]: did not
- IC50 [2, 5]: > 1000 µM
- inhibition at 1000 µM [2, 3]: 80.3%
- Hb control % ↓ OD (hemoglobin; log conc -3 (M)): 75.2%

SMILES: Cl.N=C(N)Sc1cc(O)ccc1O [Compound 112, 2-(2,5-dihydroxyphenyl)-2-thiopseudourea hydrochloride]
- % inhibition, sample [1]: 40.1%

SMILES: O=C1C=CC(=O)c2c(O)cccc21 [Compound 119, 5-hydroxy-1,4-naphthoquinone]
- inhibition in the SPA assay ([1]; 1 μM-1 mM): showed no inhibition
- activity note in Table 7 ([1]; Table 7): inactive
- cytotoxicity at 15 h, 100 µM (in vitro): 97.8%

SMILES: Oc1cccc2c(O)cccc12 [Compound 126, 1,5-naphthalenediol]
- inhibition of hemolytic activity [2]: apparently inhibited hemolytic activity
- IC50 [2, 5]: 1000 µM
- IC50 ([2]; unidentified influenza virus, Erythrocyte, Table 7, read-out: HEM, negative log of IC50 (converted)): 1000 µM
- inhibition at 1000 µM [2, 3]: 101 ± 7.6%
- Hb control % ↓ OD (hemoglobin; log conc -3 (M)): 54.4 ± 3.7%
- cytotoxicity at 15 h, 1 µM (in vitro): -6.9 ± 4%
- cytotoxicity at 15 h, 10 µM (in vitro): -9.2 ± 0.6%
- cytotoxicity at 15 h, 100 µM (in vitro): -7.6 ± 7.3%
- inhibition at 1 µM (C22 virus in MDCK2 cells; [4]): 3.8 ± 5.5%
- inhibition at 10 µM (C22 virus in MDCK2 cells; [4]): 7.4 ± 1.8%
- inhibition at 100 µM (C22 virus in MDCK2 cells; [4]): 35.6 ± 0.6%
- IC50 (C22 virus in MDCK2 cells; MDCK2, read-out: IC50 infectivity): > 100 µM
- IC50 (C22 virus in MDCK2 cells; MDCK2, read-out: INF, negative log of IC50 (converted)): > 100 µM

SMILES: N#Cc1c(O)ccc(O)c1C#N [Compound 103, 2,3-dicyanohydroquinone]
- inhibition in the SPA assay ([1]; 1 μM-1 mM): showed no inhibition
- activity note in Table 7 ([1]; Table 7): inactive

SMILES: O=C(O)C1C2C=CC(O2)C1C(=O)O (stereo not drawn) [Compound 86, 3,6-endoxo-1,2,3,6-tetrahydrophthalic acid]
- inhibition in the SPA assay ([1]; 1 μM-1 mM): showed no inhibition
- activity note in Table 7 ([1]; Table 7): inactive
